Earlier results, collected in US20250333423A1, “SMALL MOLECULE MODULATORS OF GP130 SIGNALING PATHWAYS” (CarthroniX, Inc., priority 2022, published 2025).

Assays:
gp130 = target: T1, gp130 (Homo sapiens, UniProt P40189)
T1 sequence (P40189 23-918): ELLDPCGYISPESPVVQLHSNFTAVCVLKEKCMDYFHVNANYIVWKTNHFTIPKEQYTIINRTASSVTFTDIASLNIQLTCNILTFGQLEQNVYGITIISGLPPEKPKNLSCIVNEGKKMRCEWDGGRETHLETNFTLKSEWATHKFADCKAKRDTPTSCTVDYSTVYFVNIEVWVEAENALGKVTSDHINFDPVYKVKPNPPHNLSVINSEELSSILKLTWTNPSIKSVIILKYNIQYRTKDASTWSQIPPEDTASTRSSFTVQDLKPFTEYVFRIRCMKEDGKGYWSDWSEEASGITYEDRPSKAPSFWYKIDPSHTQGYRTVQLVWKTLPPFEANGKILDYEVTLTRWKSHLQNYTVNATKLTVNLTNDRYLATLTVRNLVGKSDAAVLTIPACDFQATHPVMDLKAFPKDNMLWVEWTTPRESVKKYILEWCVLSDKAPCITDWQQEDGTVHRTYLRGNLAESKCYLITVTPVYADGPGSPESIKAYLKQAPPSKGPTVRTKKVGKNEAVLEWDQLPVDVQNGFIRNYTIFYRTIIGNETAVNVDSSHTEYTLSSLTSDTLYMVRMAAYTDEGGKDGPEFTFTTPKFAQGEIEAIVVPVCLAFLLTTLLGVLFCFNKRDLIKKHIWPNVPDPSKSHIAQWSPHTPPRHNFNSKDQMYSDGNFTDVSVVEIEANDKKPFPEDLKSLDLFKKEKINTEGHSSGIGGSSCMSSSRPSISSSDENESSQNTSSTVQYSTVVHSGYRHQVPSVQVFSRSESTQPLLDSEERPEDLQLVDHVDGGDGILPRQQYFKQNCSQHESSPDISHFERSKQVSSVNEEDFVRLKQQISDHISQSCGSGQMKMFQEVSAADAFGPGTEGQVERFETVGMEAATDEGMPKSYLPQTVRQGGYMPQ

Brc1ccc(Nc2nc(-c3ccccc3)cs2)cc1 [RCGD 423]
prevention of cartilage degeneration (rat model of OA): remarkable ability to prevent cartilage degeneration | interaction with gp130 (gp130; in vitro): interacts with the extracellular region of gp130 | formation of gp130 homodimers (gp130; ligand-independent): promotes the formation of active, ligand-independent gp130 homodimers
